Among the test systems are A498; ACHN; EKVX; HCT-116; HCT-15; HT-29; Hs-578T; IGROV-1; MDA-MB-435; MOLT-4; Malme-3M; NCI-H23; OVCAR-4; PC-3; SF-268; SK-MEL-2; SN12C; SR; NCI-H460; SF-539.
What all share (test): NCI anticancer screen, dose series, 48 h

Molecules are shown by their SMILES.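 Each compound was tested at five concentrations against cells in 96-well plates for 48 hours. Abbreviation: GI50, concentration required for 50% inhibition of growth.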 Active and inactive are the calls of the source. Rule as the data show it: active = GI50 up to about 1.1 µM and inactive = higher.

For `O=C1C2CC=CCC2C(=O)N1n1c(Cc2ccc(Cl)cc2)n[nH]c1=O` (configuration not stated), the GI50 was > 100 µM (inactive) in the assay on A498; > 100 µM (inactive) with ACHN; > 100 µM (inactive) in the assay on EKVX; > 100 µM (inactive) in the assay on HCT-116; over 100 µM in the assay on HCT-15; > 100 µM (inactive) in the assay on HT-29. Besides, the GI50 in the assay with Hs-578T, with IGROV-1, in the assay on MDA-MB-435, with MOLT-4, with Malme-3M and in the assay on NCI-H23 was > 100 µM (inactive) each time. For the same compound, the GI50 with OVCAR-4, in the assay on PC-3, in the assay with SF-268, in the assay with SK-MEL-2, in the assay on SN12C and in the assay on SR was > 100 µM (inactive) each time.
For `COC(=O)C1=C(C)NC(C)=C(C(=O)OC)C1c1ccc(/[N+]([O-])=C/c2ccccc2)cc1`, the GI50 with ACHN was 17.4 µM (inactive); in the assay on EKVX, 71.6 µM (inactive); with HCT-116, 16.4 µM (inactive); in the assay with HCT-15, 42.5 µM; in the assay with HT-29 it was 48.9 µM (inactive); in the assay with Hs-578T it was 41.3 µM (inactive). Further, the GI50 is > 100 µM (inactive) with IGROV-1; 30.4 µM (inactive) in the assay with MDA-MB-435; 24.1 µM (inactive) in the assay on MOLT-4; 17.3 µM (inactive) with Malme-3M; 42.5 µM (inactive) in the assay with NCI-H23; 66.8 µM (inactive) in the assay with NCI-H460. Further, the GI50 in the assay with OVCAR-4 was 17.3 µM (inactive); with PC-3, 64.1 µM (inactive); with SF-268, > 100 µM (inactive); in the assay on SF-539 it was > 100 µM (inactive); in the assay on SK-MEL-2, > 100 µM (inactive); with SN12C, 51.5 µM (inactive). In addition, in the assay on SR, the GI50 was 24.1 µM (inactive).
Regarding `CCSc1c(C)c2c(n(Cc3ccc(OC)cc3)c1=O)Cc1ccccc1C2`, the GI50 in the assay on ACHN was 10.3 µM (inactive); with EKVX it was 21.4 µM (inactive); with HCT-116 it was 11.2 µM (inactive); with HCT-15, 4.52 µM; with HT-29 it was 28.2 µM (inactive); with Hs-578T, 24.5 µM (inactive). Also, the GI50 with IGROV-1 is 19 µM (inactive); in the assay on MDA-MB-435, 25.1 µM (inactive); with MOLT-4 it was 2.53 µM (inactive); with Malme-3M, 10.8 µM (inactive); in the assay on NCI-H23, 20 µM (inactive); with NCI-H460 it was 6.11 µM (inactive). In addition, the GI50 in the assay with OVCAR-4 is 21.4 µM (inactive); in the assay with PC-3 it was 15.3 µM (inactive); in the assay with SF-268 it was 11.8 µM (inactive); with SF-539, 19.2 µM (inactive); in the assay on SK-MEL-2 it was 8.3 µM (inactive); in the assay on SN12C it was 12.8 µM (inactive). In addition, in the assay with SR, the GI50 is 3.61 µM (inactive).
`Cc1ccc(-c2n[nH]c(=O)n2NC(=O)c2ccccc2C(=O)O)cc1`: the GI50 was > 100 µM (inactive) with ACHN; > 100 µM (inactive) with HCT-116; over 100 µM in the assay with HCT-15; > 100 µM (inactive) in the assay with HT-29; > 100 µM (inactive) in the assay with Hs-578T; > 100 µM (inactive) with IGROV-1. The GI50 with MDA-MB-435, with MOLT-4, with Malme-3M, in the assay on NCI-H23, in the assay with NCI-H460 and in the assay on PC-3 was > 100 µM (inactive) throughout. Besides, the GI50 in the assay with SF-268, in the assay on SF-539, with SK-MEL-2, with SN12C and in the assay on SR was > 100 µM (inactive) each time.
With `Oc1c(/N=N\c2ccccc2)c2cccc3ccc4cccc1c4c32`, the GI50 is > 100 µM (inactive) in the assay on A498; 26.8 µM (inactive) in the assay on ACHN; > 100 µM (inactive) with EKVX; > 100 µM (inactive) with HCT-116; over 100 µM in the assay with HCT-15; > 100 µM (inactive) with HT-29. Also, the GI50 in the assay with Hs-578T was 33.7 µM (inactive); with IGROV-1, > 100 µM (inactive); in the assay with MDA-MB-435 it was > 100 µM (inactive); with MOLT-4, > 100 µM (inactive); with Malme-3M, > 100 µM (inactive); with NCI-H23 it was > 100 µM (inactive). For the same compound, the GI50 was 43.2 µM (inactive) in the assay on OVCAR-4; > 100 µM (inactive) in the assay with PC-3; 45.9 µM (inactive) in the assay on SF-268; > 100 µM (inactive) with SK-MEL-2; > 100 µM (inactive) in the assay with SN12C; 20.9 µM (inactive) in the assay on SR.
On to `CCCCCCNC(=O)c1cnc(Cl)cn1`, for which the GI50 is 2.36 µM (inactive) in the assay on ACHN; 5.93 µM (inactive) in the assay with EKVX; 17.1 µM (inactive) in the assay with HCT-116; 2.55 µM in the assay with HCT-15; 33.1 µM (inactive) with HT-29; 14.2 µM (inactive) in the assay on Hs-578T. Moreover, the GI50 is 10.5 µM (inactive) in the assay on IGROV-1; 15.6 µM (inactive) in the assay on MDA-MB-435; 4.82 µM (inactive) with MOLT-4; 16.7 µM (inactive) in the assay with Malme-3M; 11.1 µM (inactive) with NCI-H23; 19.3 µM (inactive) in the assay on NCI-H460. Further, the GI50 in the assay with OVCAR-4 was 20.6 µM (inactive); with PC-3, 5.51 µM (inactive); in the assay on SF-268, 14.3 µM (inactive); in the assay with SF-539 it was 17.6 µM (inactive); in the assay with SK-MEL-2, 14.7 µM (inactive); in the assay on SN12C, 13.3 µM (inactive). Moreover, in the assay on SR, the GI50 is 4.3 µM (inactive).
Regarding `c1ccc(Cn2c(-c3ccc(-c4ccccc4)cc3)cc3ccccc32)cc1`, the GI50 was > 100 µM (inactive) in the assay with ACHN; > 100 µM (inactive) with EKVX; > 100 µM (inactive) in the assay on HCT-116; over 100 µM in the assay on HCT-15; > 100 µM (inactive) in the assay on HT-29; 24.1 µM (inactive) in the assay on Hs-578T. Further, the GI50 in the assay on IGROV-1 was 67.5 µM (inactive); with MDA-MB-435, > 100 µM (inactive); with MOLT-4, > 100 µM (inactive); with Malme-3M it was 60 µM (inactive); with NCI-H23 it was > 100 µM (inactive); in the assay on NCI-H460, > 100 µM (inactive). The GI50 in the assay with OVCAR-4 is > 100 µM (inactive); in the assay on PC-3, > 100 µM (inactive); with SF-268 it was > 100 µM (inactive); with SF-539 it was > 100 µM (inactive); with SK-MEL-2, 94.6 µM (inactive); with SN12C it was > 100 µM (inactive). The GI50 in the assay on SR was > 100 µM (inactive).
Consider `COc1ccccc1/C=C1\Sc2scc(-c3ccc(O)c(O)c3)[n+]2C1=O`, for which the GI50 is 16.7 µM (inactive) in the assay with ACHN; 46.6 µM (inactive) in the assay with EKVX; 16.8 µM (inactive) in the assay with HCT-116; 16.5 µM in the assay with HCT-15; 21.4 µM (inactive) in the assay with HT-29; 88.3 µM (inactive) in the assay with Hs-578T. Further, the GI50 with IGROV-1 was 15.9 µM (inactive); with MDA-MB-435, 27.2 µM (inactive); in the assay on MOLT-4, 13.9 µM (inactive); with NCI-H23, 26.6 µM (inactive); in the assay on NCI-H460, 18.8 µM (inactive); in the assay on OVCAR-4 it was 26.8 µM (inactive). The GI50 in the assay with PC-3 was 28.2 µM (inactive); in the assay on SF-268, 58.9 µM (inactive); in the assay with SF-539, 20.7 µM (inactive); in the assay on SK-MEL-2, 17.2 µM (inactive); in the assay on SN12C, 22.5 µM (inactive); in the assay on SR it was 6.67 µM (inactive).

Source of the values: ChEMBL document CHEMBL1201862, “PubChem BioAssay data set” (2004).
